# Columns and labels:
# HARS2_C175 = target: T1, HARS2_C175 (Homo sapiens, UniProt P49590); assay: IA-DTB cysteine engagement; type: binding; conditions: 22Rv1 cells, 20 μM probe, 1 h, relative to DMSO
# T1 construct: endogenous in cells; host or cells: 22Rv1
# T1 sequence (P49590 34-506): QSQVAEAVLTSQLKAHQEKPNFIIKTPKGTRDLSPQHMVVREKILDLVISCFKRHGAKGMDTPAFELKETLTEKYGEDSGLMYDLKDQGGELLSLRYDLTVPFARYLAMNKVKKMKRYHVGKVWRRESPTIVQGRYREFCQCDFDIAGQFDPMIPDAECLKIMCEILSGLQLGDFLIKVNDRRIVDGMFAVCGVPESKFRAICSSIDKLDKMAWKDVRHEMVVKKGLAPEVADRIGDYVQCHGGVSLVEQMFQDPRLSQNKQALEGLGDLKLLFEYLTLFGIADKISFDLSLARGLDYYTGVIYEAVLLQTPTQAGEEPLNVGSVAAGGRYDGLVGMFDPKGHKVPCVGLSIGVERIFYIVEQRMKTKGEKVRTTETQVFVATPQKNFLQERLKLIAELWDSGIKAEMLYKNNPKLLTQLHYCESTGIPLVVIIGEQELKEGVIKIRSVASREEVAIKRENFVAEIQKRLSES
# Method in brief: (§1)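 Probe-exposed cells were lysed, IA-DTB-labeled, trypsinized and streptavidin-enriched. Multiplexed TMT quantitation gave engagement ratios versus DMSO, with non-tryptic peptides excluded and intensities normalized to median summed signal.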
# MMS19_C819 = target: T2, MMS19_C819 (Homo sapiens, UniProt Q96T76); assay: IA-DTB cysteine engagement; type: binding; conditions: 22Rv1 cells, 20 μM probe, 1 h, relative to DMSO
# T2 construct: endogenous in cells; host or cells: 22Rv1
# T2 sequence (Q96T76 1-1030): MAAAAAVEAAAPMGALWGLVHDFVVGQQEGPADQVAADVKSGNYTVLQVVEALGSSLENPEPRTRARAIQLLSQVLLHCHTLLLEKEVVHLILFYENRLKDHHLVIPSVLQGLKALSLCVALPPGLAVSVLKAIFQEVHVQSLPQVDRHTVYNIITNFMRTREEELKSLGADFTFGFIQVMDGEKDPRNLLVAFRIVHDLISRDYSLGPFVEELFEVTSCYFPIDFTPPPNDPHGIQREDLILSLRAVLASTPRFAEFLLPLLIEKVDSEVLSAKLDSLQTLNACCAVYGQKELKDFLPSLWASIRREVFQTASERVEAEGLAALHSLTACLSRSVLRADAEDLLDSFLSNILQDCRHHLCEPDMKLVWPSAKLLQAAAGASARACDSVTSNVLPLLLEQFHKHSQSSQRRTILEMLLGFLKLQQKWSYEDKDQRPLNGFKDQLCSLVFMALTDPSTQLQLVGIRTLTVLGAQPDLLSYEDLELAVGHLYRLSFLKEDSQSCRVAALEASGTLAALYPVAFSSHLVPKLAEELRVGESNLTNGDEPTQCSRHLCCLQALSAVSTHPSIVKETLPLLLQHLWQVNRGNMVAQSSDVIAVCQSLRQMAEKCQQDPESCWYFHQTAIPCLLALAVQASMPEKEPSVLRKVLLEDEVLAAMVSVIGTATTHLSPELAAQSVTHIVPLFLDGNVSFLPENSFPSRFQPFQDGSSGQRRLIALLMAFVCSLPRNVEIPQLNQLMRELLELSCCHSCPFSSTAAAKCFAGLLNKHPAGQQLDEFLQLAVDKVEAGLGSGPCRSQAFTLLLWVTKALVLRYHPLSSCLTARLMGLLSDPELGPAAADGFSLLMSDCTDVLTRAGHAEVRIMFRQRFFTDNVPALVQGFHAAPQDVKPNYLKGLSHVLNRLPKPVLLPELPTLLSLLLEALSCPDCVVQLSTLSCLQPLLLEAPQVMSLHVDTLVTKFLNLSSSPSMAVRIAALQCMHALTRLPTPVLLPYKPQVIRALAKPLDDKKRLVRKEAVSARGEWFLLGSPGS
# Method in brief: as §1
Structure (SMILES),% engagement HARS2_C175 (HARS2_C175),% engagement MMS19_C819 (MMS19_C819)
"C=CC(=O)N1C[C@H](c2ccc(Br)cc2)[C@@H]1C(=O)Nc1cccc2cccnc12 [MY-1B, (2R,3S)-1-acryloyl-3-(4-bromophenyl)-N-(quinolin-8-yl)azetidine-2-carboxamide]",67%,90%
"C=CC(=O)N1C[C@H](c2ccc(Br)cc2)[C@H]1C(=O)Nc1cccc2cccnc12 [MY-3B, (2S,3S)-1-acryloyl-3-(4-bromophenyl)-N-(quinolin-8-yl)azetidine-2-carboxamide]",44.5%,11%
"C=CC(=O)N1C[C@H](c2ccc(Br)cc2)[C@H]1C(=O)Nc1cccc2cccnc12 [MY-3A, (2S,3S)-1-acryloyl-3-(4-bromophenyl)-N-(quinolin-8-yl)azetidine-2-carboxamide]",11.5%,−10%
"C=CC(=O)N1C[C@@H](c2ccc(Br)cc2)[C@H]1C(=O)Nc1cccc2cccnc12 [MY-1A, (2S,3R)-1-acryloyl-3-(4-bromophenyl)-N-(quinolin-8-yl)azetidine-2-carboxamide]",100%,1.5%

# — patent US20250034216A1, “STEREOSELECTIVE COVALENT LIGANDS FOR ONCOGENIC AND IMMUNOLOGICAL PROTEINS” (The Scripps Research Institute, priority 2021, published 2025)
